Results from US11274085B2, “3-aryl-bicyclic [4,5,0] hydroxamic acids as HDAC inhibitors” (Valo Health, Inc., priority 2015, dated 2022).

Target: T1, human recombinant HDAC6 (Homo sapiens, UniProt Q9UBN7)
T1 sequence (Q9UBN7 1-1215): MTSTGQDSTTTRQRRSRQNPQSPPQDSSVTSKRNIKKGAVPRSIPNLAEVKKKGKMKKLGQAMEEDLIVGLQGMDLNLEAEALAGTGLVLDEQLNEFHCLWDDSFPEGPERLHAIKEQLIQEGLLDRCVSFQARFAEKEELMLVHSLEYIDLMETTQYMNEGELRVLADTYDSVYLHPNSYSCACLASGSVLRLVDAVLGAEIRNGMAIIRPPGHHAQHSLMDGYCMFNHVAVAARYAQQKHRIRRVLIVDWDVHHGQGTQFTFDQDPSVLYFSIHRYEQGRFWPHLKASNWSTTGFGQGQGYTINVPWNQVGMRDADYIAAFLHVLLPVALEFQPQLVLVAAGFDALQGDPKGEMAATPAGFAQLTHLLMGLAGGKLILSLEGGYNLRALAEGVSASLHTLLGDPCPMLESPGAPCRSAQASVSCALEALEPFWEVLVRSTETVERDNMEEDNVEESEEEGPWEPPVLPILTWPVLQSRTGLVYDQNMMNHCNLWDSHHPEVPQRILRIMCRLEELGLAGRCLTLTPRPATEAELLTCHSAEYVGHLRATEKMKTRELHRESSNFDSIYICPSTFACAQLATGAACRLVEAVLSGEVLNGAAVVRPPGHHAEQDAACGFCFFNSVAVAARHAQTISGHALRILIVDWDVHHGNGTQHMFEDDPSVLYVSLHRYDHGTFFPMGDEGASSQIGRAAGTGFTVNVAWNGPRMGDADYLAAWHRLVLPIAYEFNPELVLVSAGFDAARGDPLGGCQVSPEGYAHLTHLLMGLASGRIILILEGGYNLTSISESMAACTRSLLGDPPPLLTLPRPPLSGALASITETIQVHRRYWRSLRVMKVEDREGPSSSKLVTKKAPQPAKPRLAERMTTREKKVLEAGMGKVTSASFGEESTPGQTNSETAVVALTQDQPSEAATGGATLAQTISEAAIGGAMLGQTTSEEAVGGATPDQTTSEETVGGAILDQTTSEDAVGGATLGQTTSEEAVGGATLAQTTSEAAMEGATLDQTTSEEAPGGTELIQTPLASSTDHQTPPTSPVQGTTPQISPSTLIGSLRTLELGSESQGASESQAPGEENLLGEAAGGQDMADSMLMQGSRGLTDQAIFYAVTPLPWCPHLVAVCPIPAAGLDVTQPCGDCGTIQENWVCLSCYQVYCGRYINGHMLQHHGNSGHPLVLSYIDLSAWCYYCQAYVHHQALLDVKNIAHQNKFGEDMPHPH
Assay: In vitro histone deacetylase assay: enzymatic HDAC6 electrophoretic mobility shift assay
Type: biochemical
Conditions: full length human recombinant HDAC6 1 nM, 2 μM peptide substrate RHKK(Ac)-NH2, 25° C.; read-out: Inhibitory Concentration (IC50) against HDAC6, Activity Range
Procedure: The enzymatic HDAC6 assay was performed using electrophoretic mobility shift assay. […] The enzymatic reactions were assembled in 384 well plates and in a total volume of 25 μL in a reaction buffer comprising: 100 mM HEPES, pH 7.5, 25 mM KCl, 0.1% bovine serum albumin, 0.01% Triton X-100, 1% DMSO (from compounds), 2 μM of the fluorescently labeled peptide substrate, and enzyme. The enzyme was added at a final concentration of 1 nM and the peptide substrate RHKK(Ac)—NH2 was used. The compounds were tested at 12 concentrations spaced by 3× dilution intervals. Negative control samples (0%-inhibition in the absence of inhibitor) and positive control samples (100%-inhibition) were assembled in replicates of four in each assay plate. The reactions were incubated at 25° C. and quenched by the addition of 45 μL of termination buffer (100 mM HEPES, pH 7.5, 0.01% Triton X-100, 0.05% SDS).
The terminated assay plates were analyzed on LabChip® 3000 microfluidic electrophoresis instrument (Perkin Elmer/Caliper Life Sciences). The fluorescence intensity of the electrophoretically separated de-acetylated product and substrate peptide was measured. Activity in each sample was determined as the product to sum ratio (PSR):P/(S+P), where P is the peak height of the product peptide and S is the peak height of the substrate peptide. Percent inhibition (Pinh) is determined using the following equation: Pinh=(PSR0%−PSRinh)/(PSR0%−PSR100%)*100, where PSRinh is the product sum ratio in the presence of inhibitor, PSR0% is the average product sum ration in the absence of inhibitor, and PSR100% is the average product sum ratio in 100%-inhibition control samples. The IC50 values of inhibitors were determined by fitting the %-inhibition curves with 4 parameter dose-response model using XLfit 4 software.
As set forth in Table 4, below, IC50 values are defined as follows: IC50≤0.1 μM (+++); IC50>0.1 μM and ≤0.5 μM (++); IC50>0.5 μM (+).

Compound	IC50 [nM]
O=C(NO)c1ccc2c(c1)OC[C@@H](c1cccnc1)N(C(=O)N1CCOCC1)C2 (single isomer, unassigned)	> 500
O=C(NO)c1ccc2c(c1)OC[C@H](c1cccnc1)N(C(=O)N1CCOCC1)C2 (single isomer, unassigned)	≤ 100
O=C(NO)c1ccc2c(c1)OC[C@@H](c1ccccc1)N(c1ccccc1)C2 [(R)-N-hydroxy-3,4-diphenyl-2,3,4,5-tetrahydrobenzo[f][1,4]oxazepine-8-carboxamide]	100 to 500
COc1ccc(CN2Cc3ccc(C(=O)NO)cc3OC[C@H]2c2ccccc2)cc1 [(R)-N-hydroxy-4-(4-methoxybenzyl)-3-phenyl-2,3,4,5-tetrahydrobenzo[f][1,4]oxazepine-8-carboxamide]	≤ 100
CN1Cc2ccc(C(=O)NO)cc2OC[C@H]1c1ccccc1 [(R)-N-hydroxy-4-methyl-3-phenyl-2,3,4,5-tetrahydrobenzo[f][1,4]oxazepine-8-carboxamide]	≤ 100
O=C(NO)c1ccc2c(c1)OC[C@H](c1cccc(Cl)c1)N(C(=O)N1CCOCC1)C2 [(S)-3-(3-chlorophenyl)-N-hydroxy-4-(morpholine-4-carbonyl)-2,3,4,5-tetrahydrobenzo[f][1,4]oxazepine-8-carboxamide]	≤ 100
O=C(NO)c1ccc2c(c1)OC[C@H](c1ccc(Cl)cc1)N(C(=O)N1CCOCC1)C2 [(S)-3-(4-chlorophenyl)-N-hydroxy-4-(morpholine-4-carbonyl)-2,3,4,5-tetrahydrobenzo[f][1,4]oxazepine-8-carboxamide]	≤ 100
O=C(NO)c1ccc2c(c1)OC[C@H](c1ccc(F)cc1)N(C(=O)N1CCOCC1)C2 [(S)-3-(4-fluorophenyl)-N-hydroxy-4-(morpholine-4-carbonyl)-2,3,4,5-tetrahydrobenzo[f][1,4]oxazepine-8-carboxamide]	≤ 100
CC(=O)N1CCN(C(=O)N2Cc3ccc(C(=O)NO)cc3OC[C@@H]2c2ccccc2)CC1 [(S)-4-(4-acetylpiperazine-1-carbonyl)-N-hydroxy-3-phenyl-2,3,4,5-tetrahydrobenzo[f][1,4]oxazepine-8-carboxamide]	≤ 100
O=C(NO)c1ccc2c(c1)OC[C@H](c1ccccc1)N(S(=O)(=O)c1ccc(F)cc1)C2 [(S)-4-((4-fluorophenyl)sulfonyl)-N-hydroxy-3-phenyl-2,3,4,5-tetrahydrobenzo[f][1,4]oxazepine-8-carboxamide]	100 to 500
O=C(NO)c1ccc2c(c1)OC[C@H](c1ccccc1)N(C(=O)NC1CCCCC1)C2 [(S)-N4-cyclohexyl-N8-hydroxy-3-phenyl-2,3-dihydrobenzo[f][1,4]oxazepine-4,8(5H)-dicarboxamide]	≤ 100
O=C(NO)c1ccc2c(c1)OC[C@H](c1ccccc1)N(C(=O)Nc1cccnc1)C2 [(S)-N8-hydroxy-3-phenyl-N4-(pyridin-3-yl)-2,3-dihydrobenzo[f][1,4]oxazepine-4,8(5H)-dicarboxamide]	≤ 100
O=C(NO)c1ccc2c(c1)OC[C@H](c1ccccc1)N(C(=O)Nc1ccncc1)C2 [(S)-N8-hydroxy-3-phenyl-N4-(pyridin-4-yl)-2,3-dihydrobenzo[f][1,4]oxazepine-4,8(5H)-dicarboxamide]	≤ 100
O=C(NO)c1ccc2c(c1)OC[C@H](c1ccccc1)N(C(=O)NC1CCOCC1)C2 [(S)-N8-hydroxy-3-phenyl-N4-(tetrahydro-2H-pyran-4-yl)-2,3-dihydrobenzo[f][1,4]oxazepine-4,8(5H)-dicarboxamide]	≤ 100
O=C(NO)c1ccc2c(c1)OC[C@H](c1ccccc1)N(C(=O)Nc1ccccc1)C2 [(S)-N8-hydroxy-N4,3-diphenyl-2,3-dihydrobenzo[f][1,4]oxazepine-4,8(5H)-dicarboxamide]	≤ 100
CN(C)C(=O)N1Cc2ccc(C(=O)NO)cc2OC[C@@H]1c1ccccc1 [(S)-N8-hydroxy-N4,N4-dimethyl-3-phenyl-2,3-dihydrobenzo[f][1,4]oxazepine-4,8(5H)-dicarboxamide]	≤ 100
O=C(NO)c1ccc2c(c1)OC[C@H](c1ccccc1)N(c1ccccc1)C2 [(S)-N-hydroxy-3,4-diphenyl-2,3,4,5-tetrahydrobenzo[f][1,4]oxazepine-8-carboxamide]	≤ 100
O=C(NO)c1ccc2c(c1)OC[C@H](c1ccccc1)N(C(=O)N1CCCCC1)C2 [(S)-N-hydroxy-3-phenyl-4-(piperidine-1-carbonyl)-2,3,4,5-tetrahydrobenzo[f][1,4]oxazepine-8-carboxamide]	≤ 100
O=C(NO)c1ccc2c(c1)OC[C@H](c1ccccc1)N(C(=O)N1CCCC1)C2 [(S)-N-hydroxy-3-phenyl-4-(pyrrolidine-1-carbonyl)-2,3,4,5-tetrahydrobenzo[f][1,4]oxazepine-8-carboxamide]	≤ 100
COc1ccc(CN2Cc3ccc(C(=O)NO)cc3OC[C@@H]2c2ccccc2)cc1 [(S)-N-hydroxy-4-(4-methoxybenzyl)-3-phenyl-2,3,4,5-tetrahydrobenzo[f][1,4]oxazepine-8-carboxamide]	≤ 100
COC1CCN(C(=O)N2Cc3ccc(C(=O)NO)cc3OC[C@@H]2c2ccccc2)CC1 [(S)-N-hydroxy-4-(4-methoxypiperidine-1-carbonyl)-3-phenyl-2,3,4,5-tetrahydrobenzo[f][1,4]oxazepine-8-carboxamide]	≤ 100
CN1CCN(C(=O)N2Cc3ccc(C(=O)NO)cc3OC[C@@H]2c2ccccc2)CC1 [(S)-N-hydroxy-4-(4-methylpiperazine-1-carbonyl)-3-phenyl-2,3,4,5-tetrahydrobenzo[f][1,4]oxazepine-8-carboxamide]	≤ 100
O=C(NO)c1ccc2c(c1)OC[C@H](c1ccc(C(F)(F)F)cc1)N(C(=O)N1CCOCC1)C2 [(S)-N-hydroxy-4-(morpholine-4-carbonyl)-3-(4-(trifluoromethyl)phenyl)-2,3,4,5-tetrahydrobenzo[f][1,4]oxazepine-8-carboxamide]	≤ 100
Cc1ccc([C@H]2COc3cc(C(=O)NO)ccc3CN2C(=O)N2CCOCC2)cc1 [(S)-N-hydroxy-4-(morpholine-4-carbonyl)-3-(p-tolyl)-2,3,4,5-tetrahydrobenzo[f][1,4]oxazepine-8-carboxamide]	≤ 100
O=C(NO)c1ccc2c(c1)OC[C@H](c1ccccc1)N(C(=O)N1CCOCC1)C2 [(S)-N-hydroxy-4-(morpholine-4-carbonyl)-3-phenyl-2,3,4,5-tetrahydrobenzo[f][1,4]oxazepine-8-carboxamide]	≤ 100
CN1Cc2ccc(C(=O)NO)cc2OC[C@@H]1c1ccccc1 [(S)-N-hydroxy-4-methyl-3-phenyl-2,3,4,5-tetrahydrobenzo[f][1,4]oxazepine-8-carboxamide]	≤ 100
